What follows are molecules tested against CDK2/Cyclin E1 (Homo sapiens (Human), UniProt P24941) (assay: CDK2/Cyclin E1 HTRF enzyme activity assay). Settings: 1 mM ATP.
Type: biochemical
Procedure: Assays are conducted in white 384-well polystyrene plates in a final reaction volume of 8 μL. […] HTRF signals are read after 1 hour at room temperature on a PHERAstar FS plate reader (BMG Labtech). Data is analyzed with IDBS XLFit and GraphPad Prism 5.0 software using a three or four parameter dose response curve to determine IC50 for each compound.
For C[C@]1(O)CC[C@H](NCc2ccc(-n3cc(-c4nc(NC5CCN(S(=O)(=O)C6CC6)CC5)ncc4C#N)cn3)c(Cl)c2)CC1 [Example 284, 4-(1-(2-Chloro-4-((((1r,4r)-4-hydroxy-4-methylcyclohexyl)amino)methyl)phenyl)-1H-pyrazol-4-yl)-2-((1-(cyclopropylsulfonyl)piperidin-4-yl)amino)pyrimidine-5-carbonitrile], the IC50 was less than 50 nM. CC(C)(C(N)=O)n1cc(-c2nc(NC3CCN(S(=O)(=O)C4CC4)CC3)ncc2C(F)(F)F)cn1 [Example 98, 2-(4-(2-((1-(Cyclopropylsulfonyl)piperidin-4-yl)amino)-5-(trifluoromethyl)pyrimidin-4-yl)-1H-pyrazol-1-yl)-2-methylpropanamide] was tested, and the IC50 was less than 50 nM. Cc1cc(CN2CCN(C)CC2)ccc1-n1cc(-c2nc(NC3CCN(S(=O)(=O)C4CC4)CC3)ncc2C#N)cn1 [Example 242, 2-((1-(Cyclopropylsulfonyl)piperidin-4-yl)amino)-4-(1-(2-methyl-4-((4-methylpiperazin-1-yl)methyl)phenyl)-1H-pyrazol-4-yl)pyrimidine-5-carbonitrile] showed an IC50 of less than 50 nM. With CCCS(=O)(=O)N1CC[C@H](Nc2ncc(C#N)c(-c3cnn(-c4ccc(CNC)cc4Cl)c3)n2)[C@H](F)C1 [Example 118, 4-(1-(2-Chloro-4-((methylamino)methyl)phenyl)-1H-pyrazol-4-yl)-2-(((3R,4S)-3-fluoro-1-(propylsulfonyl)piperidin-4-yl)amino)pyrimidine-5-carbonitrile] the IC50 was less than 50 nM. With Cc1nc(CNC(C)C)ccc1-n1cc(-c2nc(NC3CCN(S(=O)(=O)c4cn(C)cn4)CC3)ncc2C#N)cn1 [Example 151, 4-(1-(6-((Isopropylamino)methyl)-2-methylpyridin-3-yl)-1H-pyrazol-4-yl)-2-((1-((1-methyl-1H-imidazol-4-yl)sulfonyl)piperidin-4-yl)amino)pyrimidine-5-carbonitrile] the IC50 was less than 50 nM. Work on CO[C@H]1CC[C@H](n2cc(-c3nc(N[C@H]4CCN(S(=O)(=O)c5cn(C)cn5)C[C@H]4F)ncc3C(F)(F)F)cn2)CC1 [Example 43, N-((3R,4S)-3-Fluoro-1-((1-methyl-1H-imidazol-4-yl)sulfonyl)piperidin-4-yl)-4-(1-((trans)-4-methoxycyclohexyl)-1H-pyrazol-4-yl)-5-(trifluoromethyl)pyrimidin-2-amine] yielded an IC50 of less than 50 nM. COC(=O)N[C@@H]1CC[C@@H](NCc2ccc(-n3cc(-c4nc(NC5CCN(S(C)(=O)=O)CC5)ncc4C#N)cn3)c(Cl)c2)C1 [Example 279, Methyl ((1R,3R)-3-((3-chloro-4-(4-(5-cyano-2-((1-(methylsulfonyl)piperidin-4-yl)amino)pyrimidin-4-yl)-1H-pyrazol-1-yl)benzyl)amino)cyclopentyl)carbamate] was tested, and the IC50 was less than 50 nM. CC(C)(O)Cn1cc(-c2nc(NC3CCN(S(=O)(=O)CCCCO)CC3)ncc2C(F)(F)F)cn1 [Example 93, 4-((4-((4-(1-(2-Hydroxy-2-methylpropyl)-1H-pyrazol-4-yl)-5-(trifluoromethyl)pyrimidin-2-yl)amino)piperidin-1-yl)sulfonyl)butan-1-ol] showed an IC50 of less than 50 nM. For CCS(=O)(=O)N1CCC(Nc2ncc(C#N)c(-c3cnn(-c4ccc(CN[C@H]5CC[C@](C)(O)CC5)cc4Cl)c3)n2)CC1 [Example 176, 4-(1-(2-Chloro-4-((((1r,4r)-4-hydroxy-4-methylcyclohexyl)amino)methyl)phenyl)-1H-pyrazol-4-yl)-2-((1-(ethylsulfonyl)piperidin-4-yl)amino)pyrimidine-5-carbonitrile], the IC50 was less than 50 nM. Molecule Cc1cc(CN2CCN(C)[C@@H](CO)C2)ccc1-n1cc(-c2nc(NC3CCN(S(=O)(=O)c4cn(C)cn4)CC3)ncc2C(F)(F)F)cn1 [Example 229, (R)-(1-Methyl-4-(3-methyl-4-(4-(2-((1-((1-methyl-1H-imidazol-4-yl)sulfonyl)piperidin-4-yl)amino)-5-(trifluoromethyl)pyrimidin-4-yl)-1H-pyrazol-1-yl)benzyl)piperazin-2-yl)methanol] has an IC50 of less than 50 nM. Cc1cc(CN2CCN(C)[C@@H](CC#N)C2)ccc1-n1cc(-c2nc(NC3CCN(S(=O)(=O)c4cn(C)cn4)CC3)ncc2C(F)(F)F)cn1 [Example 230, (S)-2-(1-Methyl-4-(3-methyl-4-(4-(2-((1-((1-methyl-1H-imidazol-4-yl)sulfonyl)piperidin-4-yl)amino)-5-(trifluoromethyl)pyrimidin-4-yl)-1H-pyrazol-1-yl)benzyl)piperazin-2-yl)acetonitrile] gave an IC50 of less than 50 nM. CC(C)(O)Cn1cc(-c2nc(NC3CCN(S(=O)(=O)CCCN4CCOCC4)CC3)ncc2C(F)(F)F)cn1 [Example 63, 2-Methyl-1-(4-(2-((1-((3-morpholinopropyl)sulfonyl)piperidin-4-yl)amino)-5-(trifluoromethyl)pyrimidin-4-yl)-1H-pyrazol-1-yl)propan-2-ol] was tested, and the IC50 was less than 50 nM. Work on Cc1cc(CN2CCN(C)CC2)ccc1-n1cc(-c2nc(NC3CCN(S(C)(=O)=O)CC3)ncc2C(F)(F)F)cn1 [Example 231, 4-(1-(2-Methyl-4-((4-methylpiperazin-1-yl)methyl)phenyl)-1H-pyrazol-4-yl)-N-(1-(methylsulfonyl)piperidin-4-yl)-5-(trifluoromethyl)pyrimidin-2-amine] yielded an IC50 of less than 50 nM. Molecule CN1CCC(S(=O)(=O)N2CCC(Nc3ncc(C(F)(F)F)c(-c4cnn(CC(C)(C)O)c4)n3)CC2)CC1 [Example 87, 2-Methyl-1-(4-(2-((1-((1-methylpiperidin-4-yl)sulfonyl)piperidin-4-yl)amino)-5-(trifluoromethyl)pyrimidin-4-yl)-1H-pyrazol-1-yl)propan-2-ol] has an IC50 of less than 50 nM. For CCN1CCN(Cc2ccc(-n3cc(-c4nc(NC5CCN(S(C)(=O)=O)CC5)ncc4C#N)cn3)c(Cl)c2)CC1 [Example 238, 4-(1-(2-Chloro-4-((4-ethylpiperazin-1-yl)methyl)phenyl)-1H-pyrazol-4-yl)-2-((1-(methylsulfonyl)piperidin-4-yl)amino)pyrimidine-5-carbonitrile], the IC50 was less than 50 nM. COC1CCN(CCCS(=O)(=O)N2CC[C@H](Nc3ncc(C(F)(F)F)c(-c4cnn(CC(C)(C)O)c4)n3)[C@H](F)C2)CC1 [Example 207, 1-(4-(2-(((3R,4S)-3-Fluoro-1-((3-(4-methoxypiperidin-1-yl)propyl)sulfonyl)piperidin-4-yl)amino)-5-(trifluoromethyl)pyrimidin-4-yl)-1H-pyrazol-1-yl)-2-methylpropan-2-ol] gave an IC50 of less than 50 nM. N#Cc1cccc(S(=O)(=O)N2CCC(Nc3ncc(C(F)(F)F)c(-c4cnn(C5CCOCC5)c4)n3)CC2)c1 [Example 7, 3-((4-((4-(1-(Tetrahydro-2H-pyran-4-yl)-1H-pyrazol-4-yl)-5-(trifluoromethyl)pyrimidin-2-yl)amino)piperidin-1-yl)sulfonyl)benzo nitrile] showed an IC50 of less than 50 nM. Cc1cc(CN2CCN(C)C(=O)C2)ccc1-n1cc(-c2nc(NC3CCN(S(=O)(=O)c4cn(C)cn4)CC3)ncc2C(F)(F)F)cn1 [Example 237, 1-Methyl-4-(3-methyl-4-(4-(2-((1-((1-methyl-1H-imidazol-4-yl)sulfonyl)piperidin-4-yl)amino)-5-(trifluoromethyl)pyrimidin-4-yl)-1H-pyrazol-1-yl)benzyl)piperazin-2-one] showed an IC50 of less than 50 nM. Molecule C[C@H]1COCCN1CCCS(=O)(=O)N1CCC(Nc2ncc(C(F)(F)F)c(-c3cnn(CC(C)(C)O)c3)n2)CC1 [Example 71, (S)-2-Methyl-1-(4-(2-((1-((3-(3-methylmorpholino)propyl)sulfonyl)piperidin-4-yl)amino)-5-(trifluoromethyl)pyrimidin-4-yl)-1H-pyrazol-1-yl)propan-2-ol] has an IC50 of less than 50 nM. Work on CC(C)(C(N)=O)n1cc(-c2nc(NC3CCN(S(C)(=O)=O)CC3)ncc2C(F)(F)F)cn1 [Example 30, 2-Methyl-2-(4-(2-((1-(methylsulfonyl)piperidin-4-yl)amino)-5-(trifluoromethyl)pyrimidin-4-yl)-1H-pyrazol-1-yl)propanamide] yielded an IC50 of less than 50 nM. [2H]C([2H])([2H])NCc1ccc(-n2cc(-c3nc(N[C@H]4CCN(S(=O)(=O)C5CC5)C[C@H]4F)ncc3C#N)cn2)c(Cl)c1 [Example 145, 4-(1-(2-Chloro-4-(((methyl-d3)amino)methyl)phenyl)-1H-pyrazol-4-yl)-2-(((3R,4S)-1-(cyclopropylsulfonyl)-3-fluoropiperidin-4-yl)amino)pyrimidine-5-carbonitrile] gave an IC50 of less than 50 nM. With CS(=O)(=O)N1CCC(Nc2ncc(C#N)c(-c3cnn(-c4ccc(CN[C@]5(C)C[C@H](O)C5)cc4Cl)c3)n2)CC1 [Example 158, 4-(1-(2-Chloro-4-((((1s,3s)-3-hydroxy-1-methylcyclobutyl)amino)methyl)phenyl)-1H-pyrazol-4-yl)-2-((1-(methylsulfonyl)piperidin-4-yl)amino)pyrimidine-5-carbonitrile] the IC50 was less than 50 nM. CCS(=O)(=O)N1CCC(Nc2ncc(C#N)c(-c3cnn(-c4ccc(CN[C@H]5C[C@](C)(O)C5)cc4Cl)c3)n2)CC1 [Example 193, 4-(1-(2-Chloro-4-((((1r,3r)-3-hydroxy-3-methylcyclobutyl)amino)methyl)phenyl)-1H-pyrazol-4-yl)-2-((1-(ethylsulfonyl)piperidin-4-yl)amino)pyrimidine-5-carbonitrile] was tested, and the IC50 was less than 50 nM. Molecule COC(=O)N1CC(NCc2ccc(-n3cc(-c4nc(NC5CCN(S(C)(=O)=O)CC5)ncc4C#N)cn3)c(Cl)c2)C1 [Example 172, Methyl 3-((3-chloro-4-(4-(5-cyano-2-((1-(methylsulfonyl)piperidin-4-yl)amino)pyrimidin-4-yl)-1H-pyrazol-1-yl)benzyl)amino)azetidine-1-carboxylate] has an IC50 of less than 50 nM. CCS(=O)(=O)N1CCC(Nc2ncc(C(F)(F)F)c(-c3cnn(-c4ccc(CN5CCN(C)CC5)cc4C)c3)n2)CC1 [Example 233, N-(1-(Ethylsulfonyl)piperidin-4-yl)-4-(1-(2-methyl-4-((4-methylpiperazin-1-yl)methyl)phenyl)-1H-pyrazol-4-yl)-5-(trifluoromethyl)pyrimidin-2-amine] gave an IC50 of less than 50 nM.
